For 30 compounds, IC50 results are on record in patent US8530504B2, “Pyrazolothiazole compound” (Eisai R&D Management Co., Ltd., priority 2009, dated 2013).

The target of this assay is human CRFR1 (Homo sapiens (Human), UniProt P34998). The assay is described as follows: CRFR1 Binding Test.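 Note: nonspecific binding was determined with a 4,000-fold excess of unlabelled sauvagine and subtracted from every reading.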 Conditions: competition with 100 pM 125I-CRF, SPA method, membrane fraction of human CRFR1-expressing HEK293 cells; read-out: CRF1 receptor binding capacity IC50.
human CRFR1, sequence (P34998 24-415): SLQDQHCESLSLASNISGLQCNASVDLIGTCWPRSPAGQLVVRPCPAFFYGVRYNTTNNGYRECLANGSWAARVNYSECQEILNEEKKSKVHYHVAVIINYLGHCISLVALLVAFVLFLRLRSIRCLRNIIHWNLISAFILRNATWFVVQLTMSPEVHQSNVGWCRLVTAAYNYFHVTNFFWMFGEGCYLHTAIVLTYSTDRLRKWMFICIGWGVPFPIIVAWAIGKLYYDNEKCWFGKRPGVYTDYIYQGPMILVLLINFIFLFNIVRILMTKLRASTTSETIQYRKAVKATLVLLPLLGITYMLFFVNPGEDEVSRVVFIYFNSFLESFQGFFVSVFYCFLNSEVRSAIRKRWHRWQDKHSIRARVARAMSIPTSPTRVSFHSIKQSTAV
Take `CCCN(Cc1ccncc1)c1c(OC)nn2c(-c3c(OC)cc(COC)cc3OC)csc12` [Example 44, 3-[2,6-Dimethoxy-4-(methoxymethyl)phenyl]-6-methoxy-N-propyl-N-(pyridin-4-ylmethyl)pyrazolo[5,1-b][1,3]thiazole-7-amine]: the IC50 worked out at 53 nM.
Regarding `COCCCN(CC1CC1)c1c(OC)nn2c(-c3c(OC)cc(COC)cc3OC)csc12` [Example 32, N-(Cyclopropylmethyl)-3-[2,6-dimethoxy-4-(methoxymethyl)phenyl]-6-methoxy-N-(3-methoxypropyl)pyrazolo[5,1-b][1,3]thiazole-7-amine], the IC50 was 57 nM.
Take `COCc1cc(OC)c(-c2c(C)sc3c(N(CC4CC4)CC4CCOC4)c(OC)nn23)c(OC)c1` (stereo not drawn) [Example 8, Cyclopropylmethyl-[3-(2,6-dimethoxy-4-methoxymethyl-phenyl)-6-methoxy-2-methyl-pyrazolo[5,1-b][1,3]thiazol-7-yl]-(tetrahydro-furan-3-ylmethyl)-amine]: the IC50 stood at 51 nM.
To `CCN(c1c(OC)nn2c(-c3c(OC)cc(COC)cc3OC)csc12)C1CCCC1` [Example 66, N-Cyclopentyl-3-[2,6-dimethoxy-4-(methoxymethyl)phenyl]-N-ethyl-6-methoxypyrazolo[5,1-b][1,3]thiazole-7-amine] belongs 26 nM; to `CCCCN(c1c(OCC)nn2c(-c3c(OC)cc(COC)cc3OC)csc12)C1CCOCC1` [Example 82, N-Butyl-3-[2,6-dimethoxy-4-(methoxymethyl)phenyl]-6-ethoxy-N-(tetrahydro-2H-pyran-4-yl)-pyrazolo[5,1-b][1,3]thiazole-7-amine], 63 nM; to `CCCCN(c1c(OC)nn2c(-c3c(OC)cc(COC(C)C)cc3OC)csc12)C1CCOCC1` [Example 75, Butyl-[3-(4-isopropoxymethyl-2,6-dimethoxy-phenyl)-6-methoxy-pyrazolo[5,1-b][1,3]thiazol-7-yl]-(tetrahydro-pyran-4-yl)amine], 74 nM.
As for `CCCN(c1c(OC)nn2c(-c3c(OC)cc(COC)cc3OC)csc12)C1CCCOCC1` (stereo not drawn) [Example 34, 3-[2,6-Dimethoxy-4-(methoxymethyl)phenyl]-6-methoxy-N-oxepan-4-yl-N-propylpyrazolo[5,1-b][1,3]thiazole-7-amine], the IC50 worked out at 130 nM.
As to `COCc1cc(OC)c(-c2csc3c(N(CC4CC4)CC4C5COCC54)c(OC)nn23)c(OC)c1` (single isomer, unassigned; diastereomer 2) [Example 96, N-(Cyclopropylmethyl)-3-[2,6-dimethoxy-4-(methoxymethyl)phenyl]-6-methoxy-N-[3-oxabicyclo[3.1.0]hex-6-ylmethyl]-pyrazolo[5,1-b][1,3]thiazole-7-amine (diastereomer 2)], the half-inhibitory concentration (IC50) came to 62 nM.
For the compound `CCOCc1cc(OC)c(-c2csc3c(N(CCOC)CC4CC4)c(OC)nn23)c(OC)c1` [Example 40, N-(Cyclopropylmethyl)-3-[4-(ethoxymethyl)-2,6-dimethoxyphenyl]-6-methoxy-N-(2-methoxyethyl)pyrazolo[5,1-b][1,3]thiazole-7-amine], the IC50 is 32 nM.
Regarding `COCc1cc(OC)c(-c2csc3c(N(CC4CCC4)C4CCOC4)c(OC)nn23)c(OC)c1` (stereo not drawn) [Example 29, N-(Cyclobutylmethyl)-3-[2,6-dimethoxy-4-(methoxymethyl)phenyl]-6-methoxy-N-(tetrahydrofuran-3-yl)pyrazolo[5,1-b][1,3]thiazole-7-amine], the IC50 was determined as 45 nM.
The value for `CCCCN(CC1COCOC1)c1c(OC)nn2c(-c3c(OC)cc(COC)cc3OC)csc12` [Example 12, Butyl-[3-(2,6-dimethoxy-4-methoxymethyl-phenyl)-6-methoxy-pyrazolo[5,1-b][1,3]thiazol-7-yl)-[1,3]dioxan-5-ylmethyl-amine] was 71 nM.
The value for `COCc1cc(OC)c(-c2csc3c(N(CCCF)Cc4ccncc4)c(OC)nn23)c(OC)c1` [Example 70, 3-[2,6-Dimethoxy-4-(methoxymethyl)phenyl]-N-(3-fluoropropyl)-6-methoxy-N-(pyridin-4-ylmethyl)-pyrazolo[5,1-b][1,3]thiazole-7-amine] was 61 nM; that for `COCc1cc(OC)c(-c2c(SC)sc3c(N(CC4CCOCC4)CC4CC4)c(C)nn23)c(OC)c1` [Example 1, N-(Cyclopropylmethyl)-3-[2,6-dimethoxy-4-(methoxymethyl)phenyl]-6-methyl-2-(methylthio)-N-(tetrahydro-2H-pyran-4-ylmethyl)pyrazolo[5,1-b][1,3]thiazole-7-amine] was 93 nM; that for `COCCCN(c1c(OC)nn2c(-c3c(OC)cc(COC)cc3OC)csc12)C1CCCC1` [Example 63, N-Cyclopentyl-3-[2,6-dimethoxy-4-(methoxymethyl)phenyl]-6-methoxy-N-(3-methoxypropyl)pyrazolo[5,1-b][1,3]thiazole-7-amine] was 61 nM.
`COCc1cc(OC)c(-c2csc3c(N(CCC(C)OC)CC4CC4)c(OC)nn23)c(OC)c1` (stereo not drawn) [Example 50, N-(Cyclopropylmethyl)-3-[2,6-dimethoxy-4-(methoxymethyl)phenyl]-6-methoxy-N-(3-methoxybutyl)pyrazolo[5,1-b][1,3]thiazole-7-amine]: the IC50 is 87 nM.
To `COc1cc(C)cc(OC)c1-c1csc2c(N(CC3CC3)CC3CCOC3)c(OC)nn12` (stereo not drawn) [Example 26, N-(Cyclopropylmethyl)-3-(2,6-dimethoxy-4-methylphenyl)-6-methoxy-N-(tetrahydrofuran-3-ylmethyl)pyrazolo[5,1-b][1,3]thiazole-7-amine] belongs 33 nM; to `CCCN(c1c(OCC)nn2c(-c3c(OC)cc(COC)cc3OC)csc12)C1CCOCC1` [Example 79, 3-[2,6-Dimethoxy-4-(methoxymethyl)phenyl]-6-ethoxy-N-propyl-N-(tetrahydro-2H-pyran-4-yl)pyrazolo[5,1-b][1,3]thiazole-7-amine], 76 nM.
The value for `COCc1cc(OC)c(-c2csc3c(N(C4CCC4)C4CCOC4)c(OC)nn23)c(OC)c1` (stereo not drawn) [Example 67, N-Cyclobutyl-3-[2,6-dimethoxy-4-(methoxymethyl)phenyl]-6-methoxy-N-(tetrahydrofuran-3-yl)pyrazolo[5,1-b][1,3]thiazole-7-amine] was 52 nM; that for `COCCN(c1c(OC)nn2c(-c3c(OC)cc(COC)cc3OC)csc12)C1CCCC1` [Example 53, N-Cyclopentyl-3-[2,6-dimethoxy-4-(methoxymethyl)phenyl]-6-methoxy-N-(2-methoxyethyl)pyrazolo[5,1-b][1,3]thiazole-7-amine] was 18 nM; that for `CCCN(CCC)c1c(C)nn2c(-c3c(OC)cc(COC)cc3OC)c([S+](C)[O-])sc12` (stereo not drawn) [Example 3, 3-[2,6-Dimethoxy-4-(methoxymethyl)phenyl]-6-methyl-2-(methylsulfinyl)-N,N-dipropylpyrazolo[5,1-b][1,3]thiazole-7-amine] was 297 nM.
Take `CCCN(c1c(OC)nn2c(-c3c(OC)cc(C4CC4)cc3OC)csc12)C1CCOCC1` [Example 61, 3-(4-Cyclopropyl-2,6-dimethoxyphenyl)-6-methoxy-N-propyl-N-(tetrahydro-2H-pyran-4-yl)pyrazolo[5,1-b][1,3]thiazole-7-amine]: the half-maximal inhibitory concentration (IC50) was 39 nM.
The value for `CCCCN(CCOC)c1c(OC)nn2c(-c3c(OC)cc(COC)cc3OC)csc12` [Example 28, N-Butyl-3-[2,6-dimethoxy-4-(methoxymethyl)phenyl]-6-methoxy-N-(2-methoxyethyl)pyrazolo[5,1-b][1,3]thiazole-7-amine] was 40 nM; that for `COCCCN(c1c(OC)nn2c(-c3c(OC)cc(COC)cc3OC)csc12)C1CCC1` [Example 62, N-Cyclobutyl-3-[2,6-dimethoxy-4-(methoxymethyl)phenyl]-6-methoxy-N-(3-methoxypropyl)pyrazolo[5,1-b][1,3]thiazole-7-amine] was 73 nM; that for `COCCN(CC(C)C)c1c(OC)nn2c(-c3c(OC)cc(COC)cc3OC)csc12` [Example 55, 3-[2,6-Dimethoxy-4-(methoxymethyl)phenyl]-N-isobutyl-6-methoxy-N-(2-methoxyethyl)pyrazolo[5,1-b][1,3]thiazole-7-amine] was 19 nM.
As to `COc1cc(C)cc(OC)c1-c1csc2c(N(CC3CC3)C3CCOCC3)c(OC)nn12` [Example 25, N-(Cyclopropylmethyl)-3-(2,6-dimethoxy-4-methylphenyl)-6-methoxy-N-(tetrahydro-2H-pyran-4-yl)pyrazolo[5,1-b][1,3]thiazole-7-amine], the concentration for half-maximal inhibition (IC50) was determined as 43 nM.
On to `COCCN(c1c(OC)nn2c(-c3c(OC)cc(COC)cc3OC)csc12)C1CCC1` [Example 56, N-Cyclobutyl-3-[2,6-dimethoxy-4-(methoxymethyl)phenyl]-6-methoxy-N-(2-methoxyethyl)pyrazolo[5,1-b][1,3]thiazole-7-amine], for which the IC50 was 31 nM.
The value for `CCOCc1cc(OC)c(-c2csc3c(N(CCCF)C4CCOCC4)c(OC)nn23)c(OC)c1` [Example 35, [3-(4-Ethoxymethyl-2,6-dimethoxy-phenyl)-6-methoxy-pyrazolo[5,1-b][1,3]thiazol-7-yl]-(3-fluoro-propyl)-(tetrahydro-pyran-4-yl)-amine] was 89 nM; that for `COCc1cc(OC)c(-c2csc3c(N(CC4CC4)C4CCOC4)c(OC)nn23)c(OC)c1` (stereo not drawn) [Example 13, N-(Cyclopropylmethyl)-3-[2,6-dimethoxy-4-(methoxymethyl)phenyl]-6-methoxy-N-(tetrahydrofuran-3-yl)pyrazolo[5,1-b][1,3]thiazole-7-amine] was 56 nM.
For `COCCN(CC1CCC1)c1c(OC)nn2c(-c3c(OC)cc(COC)cc3OC)csc12` [Example 48, N-(Cyclobutylmethyl)-3-[2,6-dimethoxy-4-(methoxymethyl)phenyl]-6-methoxy-N-(2-methoxyethyl)pyrazolo[5,1-b][1,3]thiazole-7-amine], the 50% inhibitory concentration (IC50) was 25 nM.
In the case of `COCCN(c1c(OC)nn2c(-c3c(OC)cc(COC)cc3OC)csc12)C1CCCCC1` [Example 54, N-Cyclohexyl-3-[2,6-dimethoxy-4-(methoxymethyl)phenyl]-6-methoxy-N-(2-methoxyethyl)pyrazolo[5,1-b][1,3]thiazole-7-amine], the IC50 was 20 nM.

A word on the IC50: it is the point on the concentration scale where inhibition reaches its midpoint.
